The text below walks through data of patent US20050233973A1, “Tri-peptides for antidepressant applications” (priority 1997, published 2005).

Data set [1] concerns the target T1, TRH receptor-1 (TRHR-1) (Mus musculus, UniProt P21761).
T1 sequence (P21761 1-393): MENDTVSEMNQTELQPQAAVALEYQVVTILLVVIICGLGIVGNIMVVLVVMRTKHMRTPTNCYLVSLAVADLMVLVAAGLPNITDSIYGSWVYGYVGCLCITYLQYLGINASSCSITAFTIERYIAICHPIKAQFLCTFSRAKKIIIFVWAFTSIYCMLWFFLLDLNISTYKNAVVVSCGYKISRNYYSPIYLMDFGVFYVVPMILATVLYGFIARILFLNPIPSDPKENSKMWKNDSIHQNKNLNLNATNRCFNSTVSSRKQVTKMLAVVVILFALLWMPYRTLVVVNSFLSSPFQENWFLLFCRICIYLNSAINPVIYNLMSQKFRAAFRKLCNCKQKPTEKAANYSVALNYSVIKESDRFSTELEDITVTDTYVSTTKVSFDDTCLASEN
In words: [3H]TRH competition binding, HEK293 cells expressing TRHR-1.

Data set [2] deals with T2, TRH receptor-2 (TRHR-2) (Rattus norvegicus, UniProt A6IZR3).
T2 sequence (A6IZR3 1-352): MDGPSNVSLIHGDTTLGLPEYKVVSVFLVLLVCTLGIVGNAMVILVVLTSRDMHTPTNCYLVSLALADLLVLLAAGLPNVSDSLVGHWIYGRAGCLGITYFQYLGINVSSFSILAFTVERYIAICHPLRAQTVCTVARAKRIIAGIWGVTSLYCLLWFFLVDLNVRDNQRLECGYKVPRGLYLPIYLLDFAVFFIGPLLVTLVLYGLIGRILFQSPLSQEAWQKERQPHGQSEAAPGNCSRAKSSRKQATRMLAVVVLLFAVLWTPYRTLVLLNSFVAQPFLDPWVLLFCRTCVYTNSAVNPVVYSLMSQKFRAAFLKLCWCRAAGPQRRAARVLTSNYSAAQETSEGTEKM
Put plainly: [3H]TRH competition binding, HEK293 cells expressing TRHR-2.

Data set [3] relates to CR-V3-B53 antibody (raised to TRH).
For data set [4], the system named is 465B12 antibody (raised to TRH).
Data set [5] relates to EEP (R^2=Glu) antibody (580B6).
A short description of data set [6]: Brain tissue analysis of TRH and EEP after peptide injection. The data set is classed as in vivo, rats. The settings on record: 0.5 mg/kg (sc).
Data set [7] is described as follows: Serum T3 and T4 levels in Porsolt test animals. It counts as in vivo, rats. The note with it: for T3 level: 0.5 mg/kg (sc); for change in T3: animals of the Porsolt test; for effect upon T3 or T4 levels: at the dosage used. As for the experimental part: A Porsolt swim test with rats was used to examine the antidepressant effects of peptides where R^2=Glu or R^2=Phe, as set forth in Lloyd, R. L. et al., Pharamcology, Biochemistry and Behavior, 70:15-22 (2001), incorporated herein by reference. […] No effect of the blocking variable or interaction of the blocking variable with treatment was found.
Using the animal models of Example 11, T3 (triiodothyronine) and T4 (thyroxine) levels were tested. Serum T3 was determined by […], using fluorescence polarization of a fixed concentration of a fluorescent analog of T3 as provided in the Abbott IMX System. T4 was also determined by radioimmunoassay. With EEP, no changes in T3 were observed. […] With ELP (where R^2 is Leu) and EFP there was an increase in T3, but this was not correlated to swim scores, with ELP not producing a behavioral effect, and EFP producing a marginal behavioral effect.

Data set [8] relates to Porsolt forced swim animal model of depression. In words: Porsolt swim test. It counts as in vivo, rats.
Procedure: Total immobility time versus swim time was recorded. Both high-dose (0.5 mg/kg sc) and low-dose injections (0.05 mg/kg ip) were used.
Data set [9] concerns pentobarbital-anesthetized rats. The data set is classed as in vivo, male Wistar rats. The settings on record: for "wet dog" shaking while still anesthetized: rat, in vivo. As to the method:
Twenty minutes after loss of the righting reflex, 10 μL of either sterile saline or peptide of this invention (1 or 10 μg/10 μL sterile saline) was administered by intracisternal (IC) injection. The time from IC injection to recovery of the righting reflex, as measured three times within 10 seconds, was recorded.

For data set [10] the following is noted: 50 micrograms given at bedtime; reduced from 12; cited from earlier work.
In data set [11] the test system is control HEK293 cells. Put plainly: Intracellular calcium response (fura2), non-transfected control cells. The data set is classed as cell-based. The settings on record: Ca2+-free buffer. As for the experimental part: The ability of peptides of the formula pGlu-[…] to stimulate an intracellular calcium response in transfected HEK293 of Example 5 was evaluated, to determine whether the peptides behave as agonists. […] The coverslip was then rinsed and placed in a Sykes-Moore chamber covered with 1 mL Ca^2+ and Mg^2+ free HBSS. Imaging was performed on a Nikon inverted microscope with a DAGE CCD72 camera and […] intensifier system. Cells were alternately excited at 340 and 380 nm and emission was measured at 490 nm; 340/380 ratios were obtained every 1.2 seconds and analyzed using Image-1 software from Universal Imaging Corporation. […] Peak responses from between 33 and 120 individual cells were averaged, and responses to TRH were measured with each set of cells as a standard. Most of the peptides caused a small increase in intracellular Ca^2+ when added to control HEK293 cells bathed in Ca^2+-containing medium, but with the exception of the R^2=Leu peptide, none of them evoked an appreciable Ca^2+ response in Ca^2+-free HBSS, which was used for all experiments.
For orientation: A change in cytosolic calcium serves as a functional read-out for many receptors and channels.

Data set [12] deals with TRH receptor-1 (TRHR-1). In words: competition with 2 nM [^3H]TRH on HEK293 cells expressing TRHR-1.
Data set [13] concerns the target TRH receptor-2 (TRHR-2). Put plainly: competition with 2 nM [^3H]TRH on HEK293 cells expressing TRHR-2.
Where [14] appears, read: tracer 125I-TRH, assay standard = 1.00.
[15] abbreviates: high-dose (0.5 mg/kg sc), three injections.
Setting [16] is: low-dose (0.05 mg/kg ip), three injections.

Where two headings read alike, the source gives them in different places. Non-standard residues stand in square brackets, D forms with d. Residues, ends and D or L forms follow the SMILES beside them. pGlu = O=C1CC[C@@H](C(=O)O)N1 A value given as a limit tells only on which side of the number the result lay.

What is called IC50 is the concentration that gives 50% inhibition. Consider `N=C(N)NCCC[C@H](NC(=O)[C@@H]1CCC(=O)N1)C(=O)N1CCC[C@H]1C(N)=O` [Arg, reference compound] ([pGlu]-Arg-Pro-NH2), for which the IC50 in data set [1] and in data set [2] was above 262 µM throughout.
Turning to `NC(=O)CC[C@H](NC(=O)[C@@H]1CCC(=O)N1)C(=O)N1CCC[C@H]1C(N)=O` [R^2 = Gln, reference compound] ([pGlu]-Gln-Pro-NH2), the “relative potency for displacement of assay tracer” value (“relative potency for displacement” for short) was determined as 0.0055 in data set [3], 0.0225 in data set [4] and 1.00 in data set [5]. The IC50 in [1] was 27.7 µM; in data set [2] it was 21.4 µM.
On to `NC(=O)[C@@H]1CCCN1C(=O)[C@H](CCC(=O)O)NC(=O)[C@@H]1CCC(=O)N1` [R^2 = Glu, pGlu-Glu-Pro-NH2] ([pGlu]-Glu-Pro-NH2), for which, in [6], the “changes in TRH or EEP in brain regions (tissue analysis)” value is on record as “failed to find any changes”. The “relative potency for displacement” value in [3] (setting [14]) is recorded as 0.0092; in data set [4] (setting [14]) it was 0.02; in [5] (setting [14]), 1.00. Moreover, the T3 level in [7] (R^2=Glu experiment, no significant difference to saline) amounted to 0.66 ng/mL; in [7] (R^2=Phe experiment, significant increase vs controls (P<0.028, one-tailed)), 0.85 ng/mL. Further, the “change in T3” value in [7] is recorded as “no changes”. Besides, the “effect upon T3 or T4 levels” value in data set [7] is recorded as “No effect”. For the same compound, the mean immobility time in [8] (0.05 mg/kg (ip)) is 121 s; in [8] (0.5 mg/kg (sc)), 58 s. Further, the “antidepressant effect compared to saline (total immobility time)” value (“antidepressant effect compared to saline” below) in data set [8] (setting [15]) and in [8] (setting [16]) was “effective” each time. Besides, the “reduction in pentobarbitol-induced sleep time (analeptic effect)” value (shortened to “reduction”) in data set [9] (IC injection of 10 μg) is “had an analeptic effect”. The “"wet dog" shaking while still anesthetized” value in data set [9] is “never produced shaking”. Besides, the IC50 in [1] and in [2] was above 282 µM each time.
For `NC(=O)[C@@H]1CCCN1C(=O)[C@H](Cc1ccccc1)NC(=O)[C@@H]1CCC(=O)N1` [R^2 = Phe, pGlu-Phe-Pro-NH2] ([pGlu]-Phe-Pro-NH2), the “changes in TRH or EEP in brain regions (tissue analysis)” value in [6] was “failed to find any changes”. Also, in [7], the “change in T3” value was “increase”. Also, the mean immobility time in data set [8] (0.5 mg/kg (sc)) amounted to 125 s. Besides, in data set [8] (setting [15]), the “antidepressant effect compared to saline” value is on record as “effective”. The IC50 in [2] is 3.36 µM.
`NC(=O)[C@@H]1CCCN1C(=O)[C@H](Cc1ccc(O)cc1)NC(=O)[C@@H]1CCC(=O)N1` [R^2 = Tyr, pGlu-Tyr-Pro-NH2] ([pGlu]-Tyr-Pro-NH2): the “relative potency for displacement” value in data set [3] (setting [14]) is on record as 3.83; in data set [4] (setting [14]), 9.85; in data set [5] (setting [14]), 5.06. The “effect upon T3 or T4 levels” value in [7] is given as “No effect”. Further, the “antidepressant effect compared to saline” value in data set [8] (setting [16]) was “effective”. Besides, the IC50 in data set [1] and in data set [2] was above 257 µM each time.
`CC(C)[C@H](NC(=O)[C@@H]1CCC(=O)N1)C(=O)N1CCC[C@H]1C(N)=O` [R^2 = Val, pGlu-Val-Pro-NH2] ([pGlu]-Val-Pro-NH2): the “relative potency for displacement” value in data set [3] (setting [14]) stood at 0.087; in data set [4] (setting [14]), 0.161; in data set [5] (setting [14]), 9.24. Also, the “effect upon T3 or T4 levels” value in data set [7] was “No effect”. Also, in data set [8] (dose not stated), the “antidepressant effect compared to saline” value was “statistically meaningful behavioral effects were not observed”. The “reduction” value in data set [9] (IC injection of 10 μg) is reported as “had an analeptic effect”. Also, the IC50 in [1] and in data set [2] was above 308 µM in each case.
`NC(=O)[C@@H]1CCCN1C(=O)[C@H](CO)NC(=O)[C@@H]1CCC(=O)N1` [Ser, reference compound] ([pGlu]-Ser-Pro-NH2): the IC50 in [1] is 69.5 µM; in data set [2] it was 39.4 µM.
As to `N[C@@H](Cc1cc(I)c(Oc2ccc(O)c(I)c2)c(I)c1)C(=O)O` [T3, liothyronine], in data set [10], the “required numbers of ECTs” value was 7.
On to `NC(=O)[C@@H]1CCCN1C(=O)[C@H](Cc1cnc[nH]1)NC(=O)[C@@H]1CCC(=O)N1` [TRH, pGlu-His-Pro-NH2, reference compound], for which the “relative potency for displacement” value in data set [3] (setting [14]) was found to be 1.00; in data set [4] (setting [14]) it was 1.00; in data set [5] (setting [14]), 2.91. Also, the “Ca2+ response” value in data set [11] is recorded as “no response”. Further, the “reduction” value is recorded as “did not result in a significant reduction” in [9] (IC injection of 1 μg) and “had an analeptic effect” in data set [9] (IC injection of 10 μg). The “"wet dog" shaking while still anesthetized” value in data set [9] is given as “frequently accompanied by “wet dog” shaking”. Also, the IC50 in [1] is 0.0235 µM; in data set [2] it was 0.0243 µM.
On to `C[C@@H](O)[C@H](NC(=O)[C@@H]1CCC(=O)N1)C(=O)N1CCC[C@H]1C(N)=O` [Thr, reference compound] ([pGlu]-Thr-Pro-NH2), for which the half-maximal inhibitory concentration (IC50) in data set [1] and in data set [2] was above 306 µM in each case.
As for [pGlu]-Arg-Pro-NH2, the IC50 in data set [12] and in [13] was above 100 µg/mL in each case.
For [pGlu]-Gln-Pro-NH2, the results for the IC50 in data set [12] and in [13] were 9.8 µg/mL and 7.57 µg/mL, respectively.
As for [pGlu]-Glu-Pro-NH2, the IC50 in data set [12] and in data set [13] was above 100 µg/mL each time.
On to [pGlu]-Leu-Pro-NH2, for which the results for the IC50 in [12] and in data set [13] were 1.85 µg/mL and 0.66 µg/mL, respectively.
For [pGlu]-Phe-Pro-NH2, the values for the IC50 in data set [12] and in data set [13] were 1.58 µg/mL and 1.25 µg/mL, respectively.
Take [pGlu]-Ser-Pro-NH2: the IC50 in [12] worked out at 21.7 µg/mL; in [13], 12.3 µg/mL.
For the compound [pGlu]-Thr-Pro-NH2, the IC50 in data set [12] and in data set [13] was above 100 µg/mL each time.
Take [pGlu]-Tyr-Pro-NH2: the IC50 in [12] and in data set [13] was above 100 µg/mL in each case.
For [pGlu]-Val-Pro-NH2, the IC50 in [12] and in data set [13] was above 100 µg/mL each time.
Consider “pGlu-His-Pro-NH2, thyrotropin releasing hormone (TRH) (peptide)”, for which the IC50 in [12] was 0.0085 µg/mL; in [13] it was 0.0088 µg/mL.
